{"source": "patent US10940179B2", "about": "“Therapeutic compositions for the treatment of dry eye disease” (SCHEPENS EYE RESEARCH INSTITUTE, priority 2010, dated 2021)", "key": {"[1]": {"system": "IL-17 (Th17 cells) and IFN-γ (Th1 cells)", "experiment": "Real-time PCR of inflammatory cytokines in draining lymph nodes of DED mice", "assay_type": "in vivo, mouse", "details": "treated vs untreated DED mice", "excerpt": "(§1) Eight to ten week-old female C57BLI6 mice (Charles River Laboratory, Wilmington, Mass.) were used in accordance with the standards in the ARVO Statement for the Use of Animals in Ophthalmic and Vision Research. The research protocol was approved by the Schepens Eye Research Institute Animal Care and Use Committee. Dry eye was induced in murine eyes using a Controlled Environment Chamber (CEC) which exposes the mice to high-flow desiccated air. To achieve maximum ocular surface dryness, the conditions in CEC were supplemented with topical application of 1% atropine sulfate (Falcon Pharma, Fort Worth, Tex.) twice for the first 48 hours and subcutaneous injections of 0.1 ml of 5 mg/ml of scopolamine hydrobromide (Sigma-Aldrich, St. Louis, Mo.) three times a day, for the entire duration of the experiment.\nFive mice (10 eyes) were included in each group. […]\n(§2) Anti-VEGF-C antibodies (VGX-100; Vegenics Limited, Australia) were administered intraperitonealy daily from day 1 to day 10 to DED mice. Mice were assessed clinically using corneal fluorescent staining. […]\n(§3) Real time PCR was performed to quantify expression of different VEGF growth factors (VEGF-A, VEGF-C, VEGF-D) and their receptors (VEGFR-2, VEGFR-3) in the cornea at days 6, 10 and 14 (FIG. 8) and to determine the levels of proinflammatory cytokines."}, "CD11b+ cells": {"system": "CD11b+ cells", "experiment": "Enumeration of CD11b+ cells in DED corneas (immunohistochemistry)", "assay_type": "in vivo, mouse", "excerpt": "(§4) Eight to ten week-old female C57BLI6 mice (Charles River Laboratory, Wilmington, Mass.) were used in accordance with the standards in the ARVO Statement for the Use of Animals in Ophthalmic and Vision Research. The research protocol was approved by the Schepens Eye Research Institute Animal Care and Use Committee. Dry eye was induced in murine eyes using a Controlled Environment Chamber (CEC) which exposes the mice to high-flow desiccated air. […]\n(§5) Freshly excised corneas were washed in PBS, fixed in acetone for 15 minutes and then double stained with CD31 and LYVE-1 as described previously. To analyze infiltration of CD11b^+/LYVE-1 cells, corneas from three mice from each group were taken and cells were counted in 5-6 areas in the periphery ([…] area from the limbus) of each cornea in a masked fashion, using epifluorescence microscope (model E800; Nikon, Melville, N.Y.) at 40× magnification. The mean number of cells was obtained by averaging the total number of cells in all the areas studied and the result was expressed as the number of positive cells per mm^2.\nas §2"}, "DED mice": {"system": "DED mice", "experiment": "Corneal fluorescein staining / clinical signs in experimental dry eye murine model", "assay_type": "in vivo, mouse", "details": "for Clinical signs of DED / disease severity: anti-VEGF-C-treated vs untreated (saline) group, daily i.p.", "excerpt": "as §1\n(§6) Anti-VEGF-C antibodies (VGX-100; Vegenics Limited, Australia) were administered intraperitonealy daily from day 1 to day 10 to DED mice. Mice were assessed clinically using corneal fluorescent staining. Tissues from cornea, conjunctiva and draining lymph nodes were examined for cellular and molecular pathological changes.\nCorneal lymphatics play an important role in mediating the corneal inflammation in dry eyes. Experiments: To validate this, inhibition of corneal neolymphangiogenesis was performed in a well characterized mouse model of DED described above. To see if inhibition of corneal neolymphangiogenesis could decrease ocular surface inflammation, anti-VEGF-C antibodies were administered i.p. daily from day −1 to day 10 to DED mice and assessed clinically using corneal fluorescein staining.\nMethods (as described previously): Induction of Dry Eye Disease. Experimental Dry Eye Murine Model. Assessment of Corneal Surface: Corneal Fluorescein Staining. Immunohistochemistry: Monocyte/macrophage marker—CD11b; Pan-endothelial marker—CD31; Lymphatic endothelial marker—LYVE-1; Blood vessels: CD31^hi/LYVE-1; Lymph vessels: CD31^lo/LYVE-l^hi. Morphometry of Lymphangiogenesis: Automated image analysis program written using Mat lab. Lymphatic Area (LA)—total surface area of the lymphatic vessels when projected into the plane of the image. Lymphatic Caliber (LC)—measure of the diameters of the lymphatic vessels.\nAnti-VEGF-C antibody and treatment regimen. Experimental design: Three groups: Normal, DE group treated with IP normal Saline (Untreated) and DE group treated with anti-VEGF-C antibody (VGX-100; a gift from Vegenics, Australia). Daily IP application of anti-VEGF-C antibody/Normal saline from day −1 to day 13. Dose: […] (20 mg/kg) in […] of Normal Saline."}, "VEGF-C, -D, R3": {"system": "VEGF-C, -D, R3", "experiment": "Real-time PCR of pro-lymphangiogenic growth factors and receptors in DE corneas", "assay_type": "in vivo, mouse", "details": "DED mice, VEGF-C blockade", "excerpt": "as §1\nFive mice (10 eyes) were included in each group. Two corneas were pooled together to equal as one sample and stored at −80° C. in Trizol (Invitrogen, Carlsbad, Calif.; catalog No. 15596026) until future use. Total RNA was isolated from these corneas using the RNeasy microkit (Qiagen, Valencia, Calif.; catalog No. 74004). Equal amounts of RNA were used to synthesize cDNA using SuperScript™ III Reverse Trancriptase (Invitrogen, Carlsbad, Calif.; catalog No. 18080) according to the manufacturer's recommendations. Real-Time PCR was performed using FAM-MGB dye labeled predesigned primers (Applied Biosystem, Foster City, Calif.) for GAPDH (assay ID.Mm999999 15_gl), VEGF-A (Mm00437304_ml), VEGF-C (Mrn00437313_ml), VEGF-D (Mm00438965_ml), VEGFR-2 (Mm00440099_ml), VEGFR-3 (Mm00433337_ml). 2.5 μl of cDNA was loaded in each well and assays were performed in duplicate. The GAPDH gene was used as the endogenous reference for each reaction. […]\nas §3"}, "[2]": {"system": "IL-1α, IL-1β, IL-6, IL-17", "experiment": "Real-time PCR of proinflammatory cytokines in conjunctiva of DED mice", "assay_type": "in vivo, mouse", "excerpt": "as §1\nFive mice (10 eyes) were included in each group. Two corneas were pooled together to equal as one sample and stored at −80° C. in Trizol (Invitrogen, Carlsbad, Calif.; catalog No. 15596026) until future use. Total RNA was isolated from these corneas using the RNeasy microkit (Qiagen, Valencia, Calif.; catalog No. 74004). Equal amounts of RNA were used to synthesize cDNA using SuperScript™ III Reverse Trancriptase (Invitrogen, Carlsbad, Calif.; catalog No. 18080) according to the manufacturer's recommendations. Real-Time PCR was performed using FAM-MGB dye labeled predesigned primers (Applied Biosystem, Foster City, Calif.) for GAPDH (assay ID.Mm999999 15_gl), VEGF-A (Mm00437304_ml), VEGF-C (Mrn00437313_ml), VEGF-D (Mm00438965_ml), VEGFR-2 (Mm00440099_ml), VEGFR-3 (Mm00433337_ml). 2.5 μl of cDNA was loaded in each well and assays were performed in duplicate. The GAPDH gene was used as the endogenous reference for each reaction. The results were normalized by the cycle threshold (CT) of GAPDH and the relative mRNA level in the normal mice was used as the normalized control.\nas §6, §3"}, "corneal lymphatics": {"system": "corneal lymphatics", "experiment": "Corneal lymphangiogenesis in DED mice (CD31/LYVE-1 staining, morphometry)", "design": "species or system mouse", "details": "in vivo blockade of VEGF-C", "excerpt": "as §4, §5\nMorphology of lymphatics was analyzed using an automated image analysis program written with Matlab (The Mathworks, Inc., Natick, Mass.). […] The resultant isolated lymphatic vessels were analyzed morphologically using two metrices, Lymphatic Area (LA) and Lymphatic Caliber (LC). […]"}, "[3]": {"details": "DED mice, VEGF-C blockade (summary)"}}}
{"substance": "VGX-100: human anti-VEGF-C monoclonal antibody produced by hybridoma ATCC PTA-4095; heavy/light chains SEQ ID NO: 34/35; from Vegenics", "values": [{"measurement": "Induction of T-cell mediated autoimmune response in draining lymph nodes (IL-17, IFN-γ by real-time PCR)", "setting": "[1]", "result": "significantly decreased induction"}, {"measurement": "Decrease of infiltration of CD11b+ cells in DED corneas", "setting": "CD11b+ cells; DED corneas, day 14", "result": 30, "unit": "%"}, {"measurement": "Corneal infiltration of CD11b+ cells", "setting": "CD11b+ cells; [3]", "result": "decrease"}, {"measurement": "Corneal epitheliopathy", "setting": "DED mice; VEGF-C blockade", "result": "decrease"}, {"measurement": "Clinical signs of DED / disease severity", "setting": "DED mice", "result": "ameliorates clinical signs of DED"}, {"measurement": "Clinical signs of DED / disease severity", "setting": "DED mice; listed as anti-VEGF-C", "result": "significant decrease in disease severity"}, {"measurement": "Clinical signs of DED / disease severity", "setting": "DED mice; listed as anti-VEGF-C Ab", "result": "ameliorates clinical signs of DED"}, {"measurement": "Corneal fluorescein staining (CFS) score", "setting": "DED mice; days 5, 9 and 13, vs untreated group, daily IP 400 µg (20 mg/kg) in 100 µl saline", "result": "significantly decreased"}, {"measurement": "Expression of VEGF-C in DE corneas", "setting": "VEGF-C, -D, R3", "result": "decrease"}, {"measurement": "Expression of VEGF-D in DE corneas", "setting": "VEGF-C, -D, R3", "result": "decrease"}, {"measurement": "Expression of VEGFR-3 (R3) in DE corneas", "setting": "VEGF-C, -D, R3", "result": "decrease"}, {"measurement": "mRNA expression levels of proinflammatory cytokines in the conjunctiva", "setting": "[2]; [3]", "result": "decrease"}, {"measurement": "IL-1α expression in conjunctiva (real-time PCR)", "setting": "[2]; treated vs untreated DED mice", "result": "significantly decreased expression"}, {"measurement": "IL-1β expression in conjunctiva (real-time PCR)", "setting": "[2]; treated vs untreated DED mice", "result": "significantly decreased expression"}, {"measurement": "IL-6 expression in conjunctiva (real-time PCR)", "setting": "[2]; treated vs untreated DED mice", "result": "significantly decreased expression"}, {"measurement": "IL-17 expression in conjunctiva (real-time PCR)", "setting": "[2]; treated vs untreated DED mice", "result": "significantly decreased expression"}, {"measurement": "Corneal lymphangiogenesis / lymphatic growth", "setting": "corneal lymphatics", "result": "suppresses corneallymphangiogenesis"}, {"measurement": "Corneal lymphangiogenesis / lymphatic growth", "setting": "corneal lymphatics; listed as anti-VEGF-C", "result": "suppression of lymphatic growth"}]}
